What all share (test): growth of human tumour cells (NCI), 48 h
Experiment [1] relates to OVCAR-5 ovarian.
Experiment [2] deals with HOP-92 NSCLC.
The subject of experiment [3] is HCT-116 colon.
The test system of experiment [4] is RPMI-8226 leukemia.
In experiment [5] the test system is SF-539 CNS.
Experiment [6] has as its system UO-31 renal.
Experiment [7] deals with K-562 leukemia.
In experiment [8] the test system is MOLT-4 leukemia.
In experiment [9] the test system is DU-145 prostate.
The test system of experiment [10] is HS 578T breast.

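Where inhibition never reached the appropriate level, the endpoint shown equals the highest concentration tested. Otherwise, values were interpolated linearly from a five-concentration, 48-hour dose response in 96-well plates. At the GI50, growth is halved. TGI: total growth inhibition.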

Consider `O=C(Nc1ccc(C(F)(F)F)cc1[N+](=O)[O-])C(=O)C1NC(=S)NC1=O` (configuration not stated), for which the TGI in [1], in experiment [2], in experiment [3], in experiment [4], in [5] and in [6] was above 100 µM each time. Also, the TGI in experiment [7] and in experiment [8] was above 100 µM each time.
With `NC(CCCC(N)P(=O)(O)O)P(=O)(O)O` (configuration not stated), the TGI in experiment [2], in experiment [3], in experiment [4], in experiment [5], in experiment [6] and in experiment [7] was above 100 µM each time. The TGI in experiment [8] was above 100 µM.
With `CC(=O)Oc1cc2c(cc1OC(C)=O)C1(C)CCC2(C)c2cc(OC(C)=O)c(OC(C)=O)cc21`, the TGI in experiment [1] is 80.9 µM; in experiment [2] it was 38.2 µM; in [4], 50.3 µM; in [6] it was 89.1 µM; in [7], 81.8 µM; in experiment [8], 96.1 µM.
In the case of `CC(=O)c1ccc(NC(=O)/C(CC(=O)c2sc(-c3cccnc3)nc2C)=N/NC(N)=O)cc1`, the TGI in experiment [1] was above 100 µM; in [3], 42.5 µM; in [4], 54.4 µM; in experiment [6], above 100 µM; in experiment [7] it was above 100 µM; in experiment [8] it was 46 µM.
For `N/N=C\c1c2ccccc2c(=O)n2c1oc1ccccc12`, the GI50 is 18.4 µM in experiment [1]; 18.9 µM in experiment [2]; 10.6 µM in [9]; 9.18 µM in experiment [4]; 11.4 µM in experiment [5]; 25.8 µM in [6]. In addition, the GI50 in experiment [7] is 20.8 µM; in experiment [8], 17.4 µM. The TGI in [1] worked out at 34.8 µM; in experiment [2], 38.7 µM; in [9], 24.9 µM; in [4] it was 29 µM; in [5], 23.6 µM; in experiment [6], 87.7 µM. In addition, the TGI in [7] amounted to 67.6 µM; in experiment [8] it was 64.9 µM.
Turning to `CN(C)CCOc1ccc([N+](=O)[O-])c2cccnc12`, the TGI in [1], in [9], in experiment [3], in experiment [5], in experiment [10] and in experiment [6] was above 100 µM throughout. Also, the TGI in [7] and in [8] was above 100 µM in each case.
In the case of `COc1ccc(NC(=O)CC/C(CC(=O)c2ccco2)=N/NC(=O)C(N)=O)cc1`, the TGI in experiment [1], in [4], in experiment [5], in [6], in experiment [7] and in experiment [8] was above 100 µM throughout.
In the case of `O=S(=O)(C1=CC(S(=O)(=O)c2ccccc2)CN(Cc2ccccc2)C1c1cccc2ccccc12)c1ccccc1` (configuration not stated), the TGI in experiment [1], in experiment [2], in [3], in experiment [4], in [5] and in experiment [6] was above 69 µM throughout. For the same compound, the TGI in [7] and in [8] was above 69 µM in each case.
With `O=c1[nH]c2ccccc2cc1-c1nc2ccc(Cl)cc2[nH]1`, the GI50 in experiment [1] is 51.7 µM; in experiment [2], 1.48 µM; in experiment [9], 7.68 µM; in [3] it was 2.66 µM; in [4], 1.42 µM; in experiment [5], 4.13 µM. Besides, the GI50 is 3.31 µM in experiment [6] and 3.85 µM in experiment [7]. Moreover, the TGI in [1] was above 100 µM; in experiment [2] it was 9.29 µM; in [9], 64.2 µM; in experiment [3], 21.4 µM; in [4], 6.78 µM; in experiment [5], 17.2 µM. The TGI in [6] and in experiment [7] was above 100 µM throughout.
For `CC(=O)Oc1c(C)c(-c2ccccc2)c(C)c(-c2ccccc2)c1C(=S)c1ccccc1`, the TGI in [1], in [2], in [3], in experiment [4], in experiment [5] and in [6] was above 100 µM each time. Further, the TGI in experiment [7] and in experiment [8] was above 100 µM throughout.
Turning to `C=CC[P@]1(=O)O[C@H](c2ccccc2)[C@H](C)N1C`, the TGI in experiment [1], in [4], in [5], in experiment [6], in experiment [7] and in experiment [8] was above 100 µM throughout.
For the compound `COc1ccc(C=O)cc1O[Si](C)(C)C(C)(C)C`, the TGI in experiment [1], in experiment [2], in experiment [3], in [4], in experiment [5] and in [6] was above 100 µM in each case. The TGI in [7] and in experiment [8] was above 100 µM throughout.
For `CC1(O)C(C)(O)C2(C)O[Te]3(OC12C)OC1(C)C(C)(O)C(C)(O)C1(C)O3` (configuration not stated), the TGI is 29.4 µM in [1]; 49.2 µM in [2]; 37.9 µM in [4]; above 100 µM in [5]; 87.5 µM in experiment [6]; 39 µM in experiment [7]. In addition, the TGI in experiment [8] came to 34.5 µM.
As for `O=C(Nc1ccc(Cl)cc1)C1C(=O)C(=O)N(c2ccc(Cl)cc2)C1=O` (configuration not stated), the TGI in [1] was above 100 µM; in experiment [2], 69.3 µM; in [3] it was above 100 µM; in experiment [4], above 100 µM; in experiment [5], above 100 µM; in experiment [6], above 100 µM. Further, the TGI in experiment [7] and in [8] was above 100 µM in each case.
`COc1cc(Nc2ncccc2C(=O)Nc2nc3ccc(F)cc3s2)cc(OC)c1OC`: the GI50 is 25.6 µM in experiment [1]; 1.48 µM in experiment [2]; 5.5 µM in [9]; 3.49 µM in experiment [3]; 3.84 µM in experiment [5]; 3.37 µM in experiment [6]. Besides, the GI50 in [8] was 2.11 µM. Moreover, the TGI in [1] is above 100 µM; in [2], 5.91 µM; in experiment [9] it was above 100 µM; in experiment [3] it was above 100 µM; in experiment [5], above 100 µM; in experiment [6] it was above 100 µM. In addition, in experiment [8], the TGI worked out at 5.85 µM.

Values taken from PubChem BioAssay (NCI).
